Data set [1] has as its target T1, hPDE5 mutants (Homo sapiens, UniProt O76074). Briefly: Western blot of AcGFP/GFP protein levels in HCT 116 cells expressing hPDE5 mutants. Format: cell-based. Also noted: GFP protein levels (western blot); fused on or other part: AcGFP reporter through a linker. Particulars: vardenafil vs DMSO, HCT 116, R732 mutants. How it is done: Protein expression analysis of the combination mutants was performed in parallel via western blot. […] GAPDH levels were also analyzed to ensure even protein loading.
A general note: Immunoblotting shows a protein as a band on a membrane.

Data set [2] concerns the target T1, hPDE5 mutants. Nature of the data set: GFP MFI by FACS in HCT116 cells transduced with hPDE5 constructs. Format: cell-based. Particulars: for Vardenafil Stabilization ratio / Sildenafil Stabilization ratio / GFP by FACS, Sildenafil 10 μM / GFP by FACS, Vardenafil 1 μM: hotspot constructs; for Vardenafil Stabilization ratio: 1 μM Vardenafil; for Sildenafil Stabilization ratio: 10 μM Sildenafil; for GFP by FACS, Sildenafil 10 μM / GFP by FACS, Vardenafil 1 μM: HCT116. (Flow cytometry measures light scatter and fluorescence of single cells or particles in a stream.)

The test system of data set [3] is hPDE5 mutants. The description is as above. Format: cell-based, human. Particulars: for Sildenafil Destabilizing mutation coefficient / Vardenafil Destabilizing mutation coefficient / GFP by FACS, Sildenafil 0 μM (DMSO) / GFP by FACS, Vardenafil 0 μM (DMSO): hotspot constructs; for Sildenafil Destabilizing mutation coefficient: DMSO control of Sildenafil; for Sildenafil Destabilizing mutation coefficient / Vardenafil Destabilizing mutation coefficient: vs OT-001075; for Vardenafil Destabilizing mutation coefficient: DMSO control of Vardenafil; for GFP by FACS, Sildenafil 0 μM (DMSO): HCT116, DMSO control of Sildenafil; for GFP by FACS, Vardenafil 0 μM (DMSO): HCT116, DMSO control of Vardenafil; for MFI: 48 hours, HCT 116 cells.

For data set [4] the following is noted: approved dose, cited from earlier work; for Cmax: PO.
Data set [5] can be described thus: Plasma PK of Tadalafil and Vardenafil after a single oral dose (LC/MS/MS). The data set is classed as in vivo, mice. To be noted: mouse, read-out: Plasma levels; for concentration at 1 h: 1 hour post dose; for concentration at 2 h: 2 hours post dose; for concentration at 4 h: 4 hours post dose; for concentration at 8 h: 8 hours post dose; for concentration at 12 h: 12 hours post dose; for concentration at 16 h: 16 hours post dose; for concentration at 24 h: 24 hours post dose. How it is done: Plasma samples collected over time and PDE5 inhibitor concentrations were determined by LC/MS/MS (Table 60). The Vardenafil/Tadalafil levels detected in the plasma declined over time and were commensurate with the initial dose orally administered to the animal.

Data set [6] concerns hPDE5 mutants. Nature of the data set: GFP expression (MFI) by FACS in HEK293 cells expressing hPDE5 constructs. To be noted: read-out: EC50 of ligand dependent stabilization; HEK293 cells expressing OT-001076, OT-001083, OT-001084; 48 h.
Procedure: The mutant library was ligated in frame with an AcGFP reporter at C-terminus and cloned into pLVX-IRES—Puro vectors. […] DNA was extracted from the cell pool, cloned into vectors, and transformed into E. coli. Individual clones were sequenced and cloned in frame with a linker [sequence] […] HEK293 cells were transduced with individual clones and selected with puromycin.
The GFP expression in cells expressing hPDE5 constructs was measured by FACS.
The stability of hPDE5 mutants was measured using FACS and mean fluorescence intensity (MFI) of GFP was calculated.
Where [7] appears, read: NSG mice, single oral dose 10 mg/kg.
The mark [8] stands for this setting: NSG mice, single oral dose 30 mg/kg.
Setting [9] is: NSG mice, single oral dose 100 mg/kg.
[10] abbreviates: CD-1 mice, single oral dose 10 mg/kg.
Where [11] appears, read: CD-1 mice, single oral dose 100 mg/kg.

Read-outs that look alike come from different tables or passages of the source.

The values below come from patent US20220403001A1, “PDE5 DERIVED REGULATORY CONSTRUCTS AND METHODS OF USE IN IMMUNOTHERAPY” (Obsidian Therapeutics, Inc., priority 2018, published 2022).

Take OT-001202: hPDE5 R732M AcGFP construct: in the data set with hPDE5 mutants [1], the “GFP protein levels (western blot)” value is listed as “strong stabilization of GFP levels”. For the same molecule, in the data set with hPDE5 mutants [2], the “Vardenafil Stabilization ratio” value amounted to 1.07; the “Sildenafil Stabilization ratio” value turned out to be 1.76; the “GFP by FACS, Sildenafil 10 μM” value came out at 503; the “GFP by FACS, Vardenafil 1 μM” value was found to be 337. Also, in the data set with hPDE5 mutants [3], the “Sildenafil Destabilizing mutation coefficient” value came to 0.29; the “Vardenafil Destabilizing mutation coefficient” value was 1.96; the “GFP by FACS, Sildenafil 0 μM (DMSO)” value came out at 285; the “GFP by FACS, Vardenafil 0 μM (DMSO)” value is reported as 316.

Consider OT-001196: hPDE5 R732S AcGFP construct, for which the “GFP protein levels (western blot)” value in the data set with hPDE5 mutants [1] was “strong stabilization of GFP levels”. For the same molecule, in the data set with hPDE5 mutants [2], the “Vardenafil Stabilization ratio” value came out at 0.7; the “Sildenafil Stabilization ratio” value was found to be 0.98; the “GFP by FACS, Sildenafil 10 μM” value was 746; the “GFP by FACS, Vardenafil 1 μM” value amounted to 399. In addition, in the data set with hPDE5 mutants [3], the “Sildenafil Destabilizing mutation coefficient” value is listed as 0.77; the “Vardenafil Destabilizing mutation coefficient” value is on record as 3.52; the “GFP by FACS, Sildenafil 0 μM (DMSO)” value is given as 760; the “GFP by FACS, Vardenafil 0 μM (DMSO)” value came to 566.

In the case of OT-001195: hPDE5 R732H AcGFP construct, in the data set with hPDE5 mutants [1], the “GFP protein levels (western blot)” value is given as “strong stabilization of GFP levels”. In addition, in the data set with hPDE5 mutants [2], the “Vardenafil Stabilization ratio” value is reported as 1.06; the “Sildenafil Stabilization ratio” value was determined as 2.02; the “GFP by FACS, Sildenafil 10 μM” value worked out at 710; the “GFP by FACS, Vardenafil 1 μM” value is 328. For the same molecule, in the data set on hPDE5 mutants [3], the “Sildenafil Destabilizing mutation coefficient” value is listed as 0.36; the “Vardenafil Destabilizing mutation coefficient” value is 1.91; the “GFP by FACS, Sildenafil 0 μM (DMSO)” value is reported as 352; the “GFP by FACS, Vardenafil 0 μM (DMSO)” value is reported as 308.

As for OT-001191: hPDE5 R732F AcGFP construct, in the data set with hPDE5 mutants [1], the “GFP protein levels (western blot)” value is reported as “Modest ligand dependent stabilization of GFP levels”. Also, the MFI with hPDE5 mutants [2] (Table 44, Vardenafil 0.01 μM, 48 h, HCT 116) came out at 2188; with hPDE5 mutants [2] (Table 44, Vardenafil 0.04 μM, 48 h, HCT 116), 8468; in the data set with hPDE5 mutants [2] (Table 44, Vardenafil 3.33 μM, 48 h, HCT 116), 14705; with hPDE5 mutants [2] (Table 44, Vardenafil 10 μM, 48 h, HCT 116) it was 17021; in the data set with hPDE5 mutants [2] (Table 44, Vardenafil 30 μM, 48 h, HCT 116), 20693; in the data set with hPDE5 mutants [2] (Table 44, Vardenafil 1000 μM, 48 h, HCT 116), 20693. For the same molecule, the MFI was found to be 688 in the data set with hPDE5 mutants [2] (Table 45, Sildenafil 0.01 μM, 48 h, HCT 116); 916 in the data set with hPDE5 mutants [2] (Table 45, Sildenafil 0.04 μM, 48 h, HCT 116); 3555 with hPDE5 mutants [2] (Table 45, Sildenafil 3.33 μM, 48 h, HCT 116); 4427 with hPDE5 mutants [2] (Table 45, Sildenafil 10 μM, 48 h, HCT 116); 5449 with hPDE5 mutants [2] (Table 45, Sildenafil 30 μM, 48 h, HCT 116); 5449 with hPDE5 mutants [2] (Table 45, Sildenafil 1000 μM, 48 h, HCT 116). For the same molecule, the MFI with hPDE5 mutants [2] (Tadalafil 0.01 μM, 48 hours, HCT 116 cells) is 631; in the data set on hPDE5 mutants [3] (Tadalafil 11.11 μM), 4734; in the data set with hPDE5 mutants [3] (Tadalafil 33.33 μM) it was 5293; with hPDE5 mutants [3] (Tadalafil 100 μM), 5867; in the data set on hPDE5 mutants [3] (Tadalafil 1000 μM), 5867. In addition, the “Vardenafil Stabilization ratio” value in the data set with hPDE5 mutants [2] is on record as 4.99. Besides, in the data set with hPDE5 mutants [2], the “Sildenafil Stabilization ratio” value stood at 1.51. Further, the “GFP by FACS, Sildenafil 10 μM” value in the data set with hPDE5 mutants [2] was 351. Also, the “GFP by FACS, Vardenafil 1 μM” value in the data set with hPDE5 mutants [2] is 943. For the same molecule, the “Sildenafil Destabilizing mutation coefficient” value with hPDE5 mutants [3] amounted to 0.24. The “Vardenafil Destabilizing mutation coefficient” value in the data set on hPDE5 mutants [3] was found to be 1.17. For the same molecule, the “GFP by FACS, Sildenafil 0 μM (DMSO)” value in the data set with hPDE5 mutants [3] is reported as 233. Also, in the data set on hPDE5 mutants [3], the “GFP by FACS, Vardenafil 0 μM (DMSO)” value is 189.

In the case of OT-001193: hPDE5 R732Y AcGFP construct, the “GFP protein levels (western blot)” value with hPDE5 mutants [1] is “strong stabilization of GFP levels”. Besides, in the data set with hPDE5 mutants [2], the “Vardenafil Stabilization ratio” value is 1.14; the “Sildenafil Stabilization ratio” value is reported as 1.63; the “GFP by FACS, Sildenafil 10 μM” value is reported as 648; the “GFP by FACS, Vardenafil 1 μM” value is 345. Moreover, in the data set on hPDE5 mutants [3], the “Sildenafil Destabilizing mutation coefficient” value was found to be 0.4; the “Vardenafil Destabilizing mutation coefficient” value is on record as 1.88; the “GFP by FACS, Sildenafil 0 μM (DMSO)” value is 397; the “GFP by FACS, Vardenafil 0 μM (DMSO)” value was determined as 302.

With OT-001190: hPDE5 R732P AcGFP construct, in the data set with hPDE5 mutants [1], the “GFP protein levels (western blot)” value is “strong stabilization of GFP levels”. Further, in the data set with hPDE5 mutants [2], the “Vardenafil Stabilization ratio” value is listed as 0.87; the “Sildenafil Stabilization ratio” value turned out to be 0.95; the “GFP by FACS, Sildenafil 10 μM” value was 361; the “GFP by FACS, Vardenafil 1 μM” value was 310. In the data set with hPDE5 mutants [3], the “Sildenafil Destabilizing mutation coefficient” value was 0.38; the “Vardenafil Destabilizing mutation coefficient” value is reported as 2.2; the “GFP by FACS, Sildenafil 0 μM (DMSO)” value came out at 379; the “GFP by FACS, Vardenafil 0 μM (DMSO)” value was determined as 355.

As a reminder, the Cmax is the maximum level reached in the sampled fluid or tissue. Take `CN1CC(=O)N2[C@H](c3ccc4c(c3)OCO4)c3[nH]c4ccccc4c3C[C@@H]2C1=O` [Tadalafil]: in data set [4], the Cmax was 1.5 µM and the Duration of action is 24 to 36 h. In data set [5] (setting [7]), the concentration at 1 h worked out at 6.8 µM, the concentration at 2 h stood at 5.4 µM, the concentration at 4 h amounted to 3.9 µM and the concentration at 8 h worked out at 0.9 µM. Also, in data set [5] (setting [7]), the concentration at 12 h is 0.1 µM and the concentration at 16 h was found to be 0 µM. Moreover, in data set [5] (setting [8]), the concentration at 1 h was determined as 19.8 µM, the concentration at 2 h is 17.6 µM, the concentration at 4 h was determined as 12.1 µM and the concentration at 8 h came out at 4.4 µM. In data set [5] (setting [8]), the concentration at 12 h amounted to 0.5 µM, the concentration at 16 h was 0.1 µM and the concentration at 24 h turned out to be 0 µM. In addition, in data set [5] (setting [9]), the concentration at 1 h was 53.3 µM, the concentration at 2 h stood at 44.7 µM, the concentration at 4 h was 34.8 µM and the concentration at 8 h was found to be 13.7 µM. In data set [5] (setting [9]), the concentration at 12 h was determined as 5.6 µM, the concentration at 16 h was 1.5 µM and the concentration at 24 h was 0.1 µM.

Broadly, the EC50 is the concentration needed to bring the measured effect to its halfway point. Regarding `CCCc1nc(C)c2c(=O)[nH]c(-c3cc(S(=O)(=O)N4CCN(CC)CC4)ccc3OCC)nn12` [Vardenafil], the EC50 with hPDE5 mutants [6] was in the range of 100 to 300 nM. Also, the Cmax in data set [4] was 0.1 µM. In addition, in data set [5] (setting [10]), the concentration at 1 h stood at 0.16 µM, the concentration at 2 h worked out at 0.03 µM and the concentration at 4 h was determined as 0.02 µM. Moreover, in data set [5] (setting [11]), the concentration at 1 h turned out to be 7.81 µM, the concentration at 2 h stood at 3.04 µM, the concentration at 4 h is 3.32 µM and the concentration at 8 h was found to be 1.18 µM. The concentration at 12 h in data set [5] (setting [11]) worked out at 0.04 µM.

As to OT-001192: hPDE5 R732W AcGFP construct, the “GFP protein levels (western blot)” value with hPDE5 mutants [1] is “strong stabilization of GFP levels”. Moreover, in the data set with hPDE5 mutants [2], the “Vardenafil Stabilization ratio” value turned out to be 0.59; the “Sildenafil Stabilization ratio” value came out at 0.64; the “GFP by FACS, Sildenafil 10 μM” value was determined as 158; the “GFP by FACS, Vardenafil 1 μM” value is 179. Moreover, in the data set with hPDE5 mutants [3], the “Sildenafil Destabilizing mutation coefficient” value was 0.25; the “Vardenafil Destabilizing mutation coefficient” value was 1.87; the “GFP by FACS, Sildenafil 0 μM (DMSO)” value is 248; the “GFP by FACS, Vardenafil 0 μM (DMSO)” value is listed as 301.
